From EP3353259B1, “SILYL MODIFIED POLYMER SEALANT” (Strongbond B.V., priority 2015, dated 2017)

test: not given; conditions: not given
Description: (§1) All ingredients except the Tegokat are added to a Hauschild cup and mixed in a Hauschild mixer for 60 seconds. Than the catalyst is added and mixed for another 30 seconds. Additionally UV- and light stabilizers, pigments etc. may be added in the first or second step.
In fig.6 the degradation time in hours at 150°C is plotted versus the time in days prior to cure at 40°C. On the horizontal axis the time the sealant was stored at 40°C before cure in days is given, showing the storage stability of the anti-oxidant, and on the vertical axis the time in hours to degradation at 150°C, showing the effectiveness of the anti-oxidant after storage of the sealant. This test may be seen as a stress test for both storage stability of the sealant as subsequent oxidation stability. The line represents the present situation using Irganox 1135 commonly applied in the sealant.
In fig. 8 a similar test as in fig. 6 is performed with the above mentioned anti-oxidants.
At present samples have been tested of a commercial STP (or SMP) sealant containing Irganox 1035, Irganox 1330 and a mixture thereof. The total antioxidant content of all samples is 4 g/kg STP polymer. The samples are stored in an oven at 40°C. The degradation times are determined at 150°C as a function of storage time. Furthermore, tensile tests are performed directly and after dumbbells used in said tests are exposed to 100°C for 1000 hours. This is done on freshly prepared sealants and sealants that have been stored at 40°C for 4 weeks.

Cc1cc(CCC(=O)OCCOCCOCCOC(=O)CCc2cc(C)c(O)c(C(C)(C)C)c2)cc(C(C)(C)C)c1O [Irganox 245] and CC(C)(C)c1cc(CCC(=O)OCCSCCOC(=O)CCc2cc(C(C)(C)C)c(O)c(C(C)(C)C)c2)cc(C(C)(C)C)c1O [Irganox 1035] are the same in “Degradation time after 7 days @ 40°C” value: 2 h for the first, 2 h for the second.

Going from CCCCCCCCSc1nc(Nc2cc(C(C)(C)C)c(O)c(C(C)(C)C)c2)nc(SCCCCCCCC)n1 [Irganox 565] to Cc1c(Cc2cc(C(C)(C)C)c(O)c(C(C)(C)C)c2)c(C)c(Cc2cc(C(C)(C)C)c(O)c(C(C)(C)C)c2)c(C)c1Cc1cc(C(C)(C)C)c(O)c(C(C)(C)C)c1 [Irganox 1330], the “Degradation time after 7 days @ 40°C” value rises from 9 h to 21 h (2.3-fold).

With CC(C)(C)c1cc(CCC(=O)OCC(COC(=O)CCc2cc(C(C)(C)C)c(O)c(C(C)(C)C)c2)(COC(=O)CCc2cc(C(C)(C)C)c(O)c(C(C)(C)C)c2)COC(=O)CCc2cc(C(C)(C)C)c(O)c(C(C)(C)C)c2)cc(C(C)(C)C)c1O [Irganox 1010] the “Degradation time after 7 days @ 40°C” value was 3 h.

Going from Cc1cc(CCC(=O)OCCOCCOCCOC(=O)CCc2cc(C)c(O)c(C(C)(C)C)c2)cc(C(C)(C)C)c1O [Irganox 245] to CC(C)(C)c1cc(CCC(=O)OCCSCCOC(=O)CCc2cc(C(C)(C)C)c(O)c(C(C)(C)C)c2)cc(C(C)(C)C)c1O [Irganox 1035], the “Initial degradation Time” value rises from 9 h to 16 h (1.8-fold).

Going from CCCCCCCCSc1nc(Nc2cc(C(C)(C)C)c(O)c(C(C)(C)C)c2)nc(SCCCCCCCC)n1 [Irganox 565] to Cc1c(Cc2cc(C(C)(C)C)c(O)c(C(C)(C)C)c2)c(C)c(Cc2cc(C(C)(C)C)c(O)c(C(C)(C)C)c2)c(C)c1Cc1cc(C(C)(C)C)c(O)c(C(C)(C)C)c1 [Irganox 1330], the “Initial degradation Time” value rises from 16 h to 34 h (2.1-fold).

For CC(C)(C)c1cc(CCC(=O)OCC(COC(=O)CCc2cc(C(C)(C)C)c(O)c(C(C)(C)C)c2)(COC(=O)CCc2cc(C(C)(C)C)c(O)c(C(C)(C)C)c2)COC(=O)CCc2cc(C(C)(C)C)c(O)c(C(C)(C)C)c2)cc(C(C)(C)C)c1O [Irganox 1010], the “Initial degradation Time” value was 24 h.

First: Cc1cc(CCC(=O)OCCOCCOCCOC(=O)CCc2cc(C)c(O)c(C(C)(C)C)c2)cc(C(C)(C)C)c1O [Irganox 245]
Second: CC(C)(C)c1cc(CCC(=O)OCCSCCOC(=O)CCc2cc(C(C)(C)C)c(O)c(C(C)(C)C)c2)cc(C(C)(C)C)c1O [Irganox 1035]
The “Relative decrease degradation time after 7days @ 40°C” value (from here on “Relative decrease degradation time”) of the first is higher: 22% for the first, 13% for the second.

First: CCCCCCCCSc1nc(Nc2cc(C(C)(C)C)c(O)c(C(C)(C)C)c2)nc(SCCCCCCCC)n1 [Irganox 565]
Second: Cc1c(Cc2cc(C(C)(C)C)c(O)c(C(C)(C)C)c2)c(C)c(Cc2cc(C(C)(C)C)c(O)c(C(C)(C)C)c2)c(C)c1Cc1cc(C(C)(C)C)c(O)c(C(C)(C)C)c1 [Irganox 1330]
The “Relative decrease degradation time” value of the first is lower: 56% for the first, 62% for the second.

In the case of CC(C)(C)c1cc(CCC(=O)OCC(COC(=O)CCc2cc(C(C)(C)C)c(O)c(C(C)(C)C)c2)(COC(=O)CCc2cc(C(C)(C)C)c(O)c(C(C)(C)C)c2)COC(=O)CCc2cc(C(C)(C)C)c(O)c(C(C)(C)C)c2)cc(C(C)(C)C)c1O [Irganox 1010], the “Relative decrease degradation time” value is reported as 13%.

test: Cure of MS-kit with 4-dodecylbenzenesulfonic acid (comparative example 1a-b); type: physicochemical; conditions: added instead of a tin-catalyst
Description: as §1

For CCCCCCCCCCCCc1ccc(S(=O)(=O)O)cc1 [4-dodecylbenzenesulfonic acid], the cure was “no cure was observed”.

same assay, conditions: after addition of a tin catalyst

In the case of CCCCCCCCCCCCc1ccc(S(=O)(=O)O)cc1 [4-dodecylbenzenesulfonic acid], the cure is reported as “behaved as without 4-dodecylbenzenesulfonic acid”.

test: Oxidation resistance of MS-kit with dodecylsulfide (comparative example 2a-d); type: physicochemical; conditions: up to 5% added to a standard mix with and without Irganox 1135, compared to standard mixture without dodecylsulfide
Description: Up to 5% dodecylsulfide was added to a standard mix with and without Irganox 1135. No change in oxidation resistance was found compared to the standard mixture with or without Irganox 1135 not containing dodecylsulfide.

For CCCCCCCCCCCCSCCCCCCCCCCCC [dodecylsulfide], the oxidation resistance was “No change”.
